From the NIST ThermoML archive (doi:10.1016/j.jct.2004.05.008)

Key:
[1] = Crystal
[2] = Molar enthalpy of transition or fusion; conditions: Crystal
[3] = molar heat capacity at constant pressure; conditions: 101.33 kPa

O=C1OC(=O)C2=C1CCCC2 [3,4,5,6-tetrahydrophthalic anhydride]
Conditions | Molar enthalpy of transition or fusion [kcal/mol] | Triple point temperature [K]
[1] | – | 343.46
[2] | 2.839 | –

[3]
Conditions | molar heat capacity at constant pressure [J/K/mol]
80.34 K, Crystal | 56.23
83.47 K, Crystal | 56.18
86.53 K, Crystal | 56.31
89.58 K, Crystal | 56.4
92.48 K, Crystal | 56.87
95.3 K, Crystal | 57.18
98.08 K, Crystal | 57.46
100.82 K, Crystal | 57.84
103.56 K, Crystal | 57.96
106.09 K, Crystal | 58.31
108.63 K, Crystal | 58.53
111.12 K, Crystal | 58.74
113.61 K, Crystal | 59.12
116.02 K, Crystal | 59.31
118.43 K, Crystal | 59.66
120.75 K, Crystal | 60.05
123.08 K, Crystal | 60.42
125.35 K, Crystal | 60.99
127.64 K, Crystal | 61.14
129.84 K, Crystal | 61.87
132.12 K, Crystal | 62.27
134.33 K, Crystal | 62.87
136.53 K, Crystal | 63.57
138.65 K, Crystal | 64.15
140.81 K, Crystal | 64.74
142.92 K, Crystal | 65.78
145.08 K, Crystal | 66.49
147.12 K, Crystal | 67.22
149.15 K, Crystal | 68.03
151.27 K, Crystal | 69
153.3 K, Crystal | 69.87
155.3 K, Crystal | 70.76
157.37 K, Crystal | 71.32
159.37 K, Crystal | 72.03
161.36 K, Crystal | 72.91
163.27 K, Crystal | 73.95
165.22 K, Crystal | 74.97
167.13 K, Crystal | 76.01
169.12 K, Crystal | 76.73
171.05 K, Crystal | 77.91
172.94 K, Crystal | 78.5
174.85 K, Crystal | 79.78
176.72 K, Crystal | 80.51
178.63 K, Crystal | 81.53
180.46 K, Crystal | 82.71
182.28 K, Crystal | 83.6
184.11 K, Crystal | 84.61
185.95 K, Crystal | 85.45
187.77 K, Crystal | 86.62
189.63 K, Crystal | 87.81
191.38 K, Crystal | 88.82
193.21 K, Crystal | 89.85
194.95 K, Crystal | 91.18
196.74 K, Crystal | 92.52
198.56 K, Crystal | 93.84
200.32 K, Crystal | 95.12
202.04 K, Crystal | 96
203.79 K, Crystal | 97.45
205.5 K, Crystal | 99.08
207.28 K, Crystal | 100.34
208.94 K, Crystal | 101.59
210.65 K, Crystal | 102.87
212.31 K, Crystal | 103.87
214.01 K, Crystal | 105.32
215.67 K, Crystal | 106.26
217.29 K, Crystal | 107.56
218.95 K, Crystal | 108.78
220.53 K, Crystal | 109.96
222.27 K, Crystal | 111.19
223.72 K, Crystal | 112.09
225.46 K, Crystal | 113.46
227.04 K, Crystal | 114.91
228.58 K, Crystal | 116.07
230.24 K, Crystal | 117.61
231.74 K, Crystal | 119.05
233.19 K, Crystal | 120.59
234.7 K, Crystal | 122.14
236.22 K, Crystal | 123.06
237.68 K, Crystal | 124.72
239.17 K, Crystal | 126.14
240.66 K, Crystal | 127.28
242.12 K, Crystal | 128.82
243.56 K, Crystal | 131.28
244.92 K, Crystal | 131.95
246.4 K, Crystal | 132.94
247.8 K, Crystal | 133.95
249.31 K, Crystal | 135.13
250.75 K, Crystal | 136.4
252.21 K, Crystal | 137.63
253.66 K, Crystal | 138.64
255.1 K, Crystal | 140.01
256.48 K, Crystal | 141.43
257.94 K, Crystal | 143.17
259.38 K, Crystal | 144.54
260.76 K, Crystal | 146.26
262.22 K, Crystal | 147.86
263.56 K, Crystal | 149.6
264.98 K, Crystal | 151.29
266.44 K, Crystal | 153.66
267.8 K, Crystal | 155.02
269.17 K, Crystal | 156.54
270.62 K, Crystal | 158.31
271.99 K, Crystal | 160.29
273.83 K, Crystal | 162.61
276.06 K, Crystal | 165.27
278.26 K, Crystal | 168.2
280.47 K, Crystal | 170.86
282.77 K, Crystal | 174.18
285 K, Crystal | 177.2
287.13 K, Crystal | 180
289.24 K, Crystal | 183.15
291.4 K, Crystal | 185.52
293.54 K, Crystal | 188.07
295.62 K, Crystal | 190.23
297.76 K, Crystal | 193.49
299.9 K, Crystal | 196.12
302.04 K, Crystal | 198.91
304.16 K, Crystal | 201.6
306.28 K, Crystal | 204.33
308.44 K, Crystal | 208.09
310.59 K, Crystal | 210.93
312.73 K, Crystal | 214.84
314.77 K, Crystal | 218
316.97 K, Crystal | 220.39
319 K, Crystal | 224.36
321.06 K, Crystal | 227.34
323.12 K, Crystal | 231.9
325.11 K, Crystal | 237.01
327.12 K, Crystal | 241.19
329.09 K, Crystal | 246.67
330.99 K, Crystal | 261.9
346.46 K, Liquid | 275.09
348.18 K, Liquid | 275.94
350 K, Liquid | 277.07
351.67 K, Liquid | 278.18
353.41 K, Liquid | 279.59
355.08 K, Liquid | 280.65
356.67 K, Liquid | 281.82
360.3 K, Liquid | 284.63
